Entries after “also recorded” stand apart in the source; their conditions may differ. Read-outs that look alike come from different tables or passages of the source.

In general, inhibition refers to how much of the control response was suppressed. One may read the IC50 as the concentration that inhibits the measured activity by half.

The subject of data set [1] is NCI-1975 lung cancer cell line. The data set can be described thus: Cell viability assay (CellTiter Glo), NCI-1975. Type of data set: cell-based. The note with it: 120 h; NCI-1975, 20 uM, day 5; read-out: % growth inhibition. Here is the method: (§1) Pancreatic cancer cell lines (MIA PaCa-2 and CAPAN-2) were purchased from ATCC. MIA PaCa-2 were grown in DMEM and CAPAN-2 in McCoy's 5A (Gibco). Colon cancer cell lines (SW480 and HT-29) were purchased from ATCC. SW480 were grown in Leibovitz's L-15 (ATCC) and HT-29 in McCoy's 5A (Gibco). Lung cancer cell lines (NCI 460 and NCI 1975) were purchased from ATCC and grown in RPMI 1640 (Gibco). PC-3 prostate cancer cell line was purchased from ATCC and grown in F-12K (ATCC). Bladder cancer cell line 5637 was purchased from ATCC and RT-112 was purchased from Sigma-Aldrich and was grown in RPMI 1640 (Gibco). […] IL1B and TNFA mRNA levels were measured by qPCR analysis as described previously (Fang K et al. Am J Pathol, 188(3):586-99, 2018).
(§2) 1.8×10^3 cells/well were plated in quadruplicates in 96-well plate and treated with exogenously added MJK analogues 6 hours after plating. […] Cell growth was assessed 1, 3, 5 or 7 days after plating using the CellTiter Glo Luminescence Cell Viability Assay (Promega) according to manufacturer's protocol. For the experiments where the effect of combinatorial treatment of MJK-004 analogues with chemotherapy was assessed, treatment of cells with gemcitabine (10 nM) or 5-fluouracil (2000 nM) was performed one day after MJK-004 treatment and the cells were further treated with exogenously added MJK analogues 2 days later. […]

Data set [2] has as its system CAPAN-2 pancreatic cancer cell line. The data set can be described thus: Cell viability assay (CellTiter Glo), CAPAN-2. The note with it: Homo sapiens, 120 h; CAPAN-2, 20 uM, day 5; read-out: % growth inhibition. Type of data set: cell-based. Here is the method:
as §1, §2
On the technique in general: Cellular ATP, detected with luciferase, serves as a proxy for viable cell number.

Data set [3] relates to PC-3 prostate cancer cell line. In words: Cell viability assay (CellTiter Glo), PC-3. Type of data set: cell-based. The note with it: 120 h; PC-3, 20 uM, day 5; read-out: % growth inhibition. As for the experimental part: as §1, §2
Data set [4] relates to 5637 bladder cancer cell line. In words: Cell viability assay (CellTiter Glo), 5637. Type of data set: cell-based. The note with it: for IC50: 5637 cell growth. Here is the method:
Pancreatic cancer cell lines (MIA PaCa-2 and CAPAN-2) were purchased from ATCC. MIA PaCa-2 were grown in DMEM and CAPAN-2 in McCoy's 5A (Gibco). Colon cancer cell lines (SW480 and HT-29) were purchased from ATCC. SW480 were grown in Leibovitz's L-15 (ATCC) and HT-29 in McCoy's 5A (Gibco). Lung cancer cell lines (NCI 460 and NCI 1975) were purchased from ATCC and grown in RPMI 1640 (Gibco). PC-3 prostate cancer cell line was purchased from ATCC and grown in F-12K (ATCC). Bladder cancer cell line 5637 was purchased from ATCC and RT-112 was purchased from Sigma-Aldrich and was grown in RPMI 1640 (Gibco). Bladder cancer cell lines, UMUC-9, UMUC-15 and UMUC-7 were purchased from MD Anderson and were grown in EMEM (ATCC). Bladder cancer cell line J82 was purchased from ATCC and was grown in EMEM (ATCC). SW1710 and EJ28 bladder cancer cell lines were purchased from DSMZ and were grown in DMEM (ATCC) and RPMI-1640 (Gibco), respectively. Bladder cancer cell line T24 was purchased from ATCC and grown in McCoy's 5A (Gibco). Bladder cancer cell line BC-3C was purchased from DSMZ and was grown in McCoy's 5A (Gibco). […] IL1B and TNFA mRNA levels were measured by qPCR analysis as described previously (Fang K et al. Am J Pathol, 188(3):586-99, 2018).
as §2, with “later. Cell growth was assessed 3, 4, 5 or 6 days after plating using the CellTiter Glo Luminescence Cell Viability Assay (Promega) according to manufacturer's protocol. Data are expressed as mean […] (arbitrary units)±S.D.” for “later.”

A further data set concerns the target T1, HDAC9 (Homo sapiens, UniProt Q9UKV0).
T1 construct: purchased BPS Bioscience 50069
In words: Fluorogenic HDAC9 activity assay. In kind it is biochemical. The note with it: fluorogenic assay kit, in words. As for the experimental part: To measure the effects of MJK-001, -004, -006 and -008 on HDAC4 & 9 activity fluorogenic HDAC9 (#50069) and HDAC4 (#50064) assay kits (BPS Bioscience) were used. Briefly, these assays consist of two steps; in the first one the HDAC fluorometric substrate containing an acetylated lysine side chain is incubated with purified HDAC9. In the second step, the deacetylation sensitizes the substrate so subsequent treatment with the lysine developer produces a fluorophore that was measured by a fluorescence reader.

Data set [5] has as its system UMUC9 bladder cancer cells. In words: Cell viability assay (CellTiter Glo), UMUC9. Type of data set: cell-based. The note with it: for IC50: UM-UC-9. As for the experimental part:
Pancreatic cancer cell lines (MIA PaCa-2 and CAPAN-2) were purchased from ATCC. MIA PaCa-2 were grown in DMEM and CAPAN-2 in McCoy's 5A (Gibco). Colon cancer cell lines (SW480 and HT-29) were purchased from ATCC. SW480 were grown in Leibovitz's L-15 (ATCC) and HT-29 in McCoy's 5A (Gibco). Lung cancer cell lines (NCI 460 and NCI 1975) were purchased from ATCC and grown in RPMI 1640 (Gibco). PC-3 prostate cancer cell line was purchased from ATCC and grown in F-12K (ATCC). Bladder cancer cell line 5637 was purchased from ATCC and RT-112 was purchased from Sigma-Aldrich and was grown in RPMI 1640 (Gibco). Bladder cancer cell lines, UMUC-9, UMUC-15 and UMUC-7 were purchased from MD Anderson and were grown in EMEM (ATCC). Bladder cancer cell line J82 was purchased from ATCC and was grown in EMEM (ATCC). SW1710 and EJ28 bladder cancer cell lines were purchased from DSMZ and were grown in DMEM (ATCC) and RPMI-1640 (Gibco), respectively. Bladder cancer cell line T24 was purchased from ATCC and grown in McCoy's 5A (Gibco). Bladder cancer cell line BC-3C was purchased from DSMZ and was grown in McCoy's 5A (Gibco). All media were supplemented with 10% FBS (Gemini Bioproducts) and 1% Antibiotic-Antimycotic (Gibco). In the case of MIA PaCa-2, medium was also supplemented with 2.5% horse serum (Gibco). NCM356 colon epithelial cell lines were growth in M3:10 (INCELL, San Antonio, Tex.). A CMV-driven-HDAC9 vector was used to overexpress HDAC9 levels in NCM356 cells. IL1B and TNFA mRNA levels were measured by qPCR analysis as described previously (Fang K et al. Am J Pathol, 188(3):586-99, 2018).
1.8×10^3 cells/well were plated in quadruplicates in 96-well plate and treated with exogenously added MJK analogues 6 hours after plating. For the experiments performed to calculate the IC50s of HDAC9 analogues, a secondary treatment of exogenously added MJK analogues was performed 2 days later. Cell growth was assessed 1, 3, 5 or 7 days after plating using the CellTiter Glo Luminescence Cell Viability Assay (Promega) according to manufacturer's protocol. For the experiments where the effect of combinatorial treatment of MJK-004 analogues with chemotherapy was assessed, treatment of cells with gemcitabine (10 nM) or 5-fluouracil (2000 nM) was performed one day after MJK-004 treatment and the cells were further treated with exogenously added MJK analogues 2 days later. Cell growth was assessed 3, 4, 5 or 6 days after plating using the CellTiter Glo Luminescence Cell Viability Assay (Promega) according to manufacturer's protocol. Data are expressed as mean […] (arbitrary units)±S.D.
Cell Viability Assays were employed to determine the concentration of MJK analogues where the response is reduced by half. For each treatment of cancer cells, 1, 2, 5, 10 and 20 μM of MJK analogues were applied. GraphPad Prism 7 software was used to fit dose response curves. Relative Luciferase Activity Units were plotted against the log values of the doses used and the nonlinear regression model was used for data analysis.

In data set [6] the test system is NCI-460 lung cancer cell line. The data set can be described thus: Cell viability assay (CellTiter Glo), NCI-460. In kind it is cell-based. The note with it: 120 h; NCI-460, 20 uM, day 5; read-out: % growth inhibition. As for the experimental part: as §1, §2
The subject of data set [7] is EJ28 bladder cancer cell line. In words: Cell viability assay (CellTiter Glo), EJ28. The note with it: Homo sapiens, EJ-28; EJ28 cell growth. Type of data set: cell-based. Here is the method:
as §1, §2

Data set [8] deals with BC3C bladder cancer cell line. The data set can be described thus: Cell viability assay (CellTiter Glo), BC3C. The note with it: BC3C cell growth. In kind it is cell-based. As for the experimental part: as §1, §2
The test system of data set [9] is RT-112 bladder cancer cells. The data set can be described thus: Anchorage-independent cell growth assay (colonies in soft agar). Type of data set: cell-based. The note with it: RT-112, treated at 1xIC50 or 2xIC50 for 3 days. As for the experimental part: Quadruplicate samples of 1×10^6 bladder cancer cells, that were previously untreated or treated with the MJK-004 at the concentration corresponding to the 1×IC50 or 2×IC50 for each cell line (as assessed at the third day after cells' plating and treatment) for 3 days, were assayed in 96-well plates for colony formation using the CytoSelect Cell Transformation kit (Cell Biolabs, Inc) according to manufacturer's protocol. Seven days later, live cells were detected using a colorimetric format. The MTT dye was added directly to the cultured cells followed by a detergent solution. Quantitation was performed using a standard microplate reader at 540-570 nm. Data were expressed as the mean±S.D.

The nature of data set [10]: Water solubility of MJK compounds. Type of data set: physicochemical. The source says:
Solubility of MJK compounds: The development of an oral formulation for patients with auto-immune diseases, including Crohn's Disease, is preferential and less expensive, avoiding the need of hospitalization in comparison to the intracolonic (enema) administration. Thus, the water solubility and physical properties of the MJK compounds were examined. […] MJK-008 is the highest soluble MJK compound.

Data set [11] concerns IL1B and TNFA mRNA levels in HDAC9-overexpressing NCM356 cells. In words: IL1B and TNFA mRNA (qPCR) in HDAC9-overexpressing NCM356 colonocytes. Type of data set: cell-based.

T1 sequence (Q9UKV0 whole entry): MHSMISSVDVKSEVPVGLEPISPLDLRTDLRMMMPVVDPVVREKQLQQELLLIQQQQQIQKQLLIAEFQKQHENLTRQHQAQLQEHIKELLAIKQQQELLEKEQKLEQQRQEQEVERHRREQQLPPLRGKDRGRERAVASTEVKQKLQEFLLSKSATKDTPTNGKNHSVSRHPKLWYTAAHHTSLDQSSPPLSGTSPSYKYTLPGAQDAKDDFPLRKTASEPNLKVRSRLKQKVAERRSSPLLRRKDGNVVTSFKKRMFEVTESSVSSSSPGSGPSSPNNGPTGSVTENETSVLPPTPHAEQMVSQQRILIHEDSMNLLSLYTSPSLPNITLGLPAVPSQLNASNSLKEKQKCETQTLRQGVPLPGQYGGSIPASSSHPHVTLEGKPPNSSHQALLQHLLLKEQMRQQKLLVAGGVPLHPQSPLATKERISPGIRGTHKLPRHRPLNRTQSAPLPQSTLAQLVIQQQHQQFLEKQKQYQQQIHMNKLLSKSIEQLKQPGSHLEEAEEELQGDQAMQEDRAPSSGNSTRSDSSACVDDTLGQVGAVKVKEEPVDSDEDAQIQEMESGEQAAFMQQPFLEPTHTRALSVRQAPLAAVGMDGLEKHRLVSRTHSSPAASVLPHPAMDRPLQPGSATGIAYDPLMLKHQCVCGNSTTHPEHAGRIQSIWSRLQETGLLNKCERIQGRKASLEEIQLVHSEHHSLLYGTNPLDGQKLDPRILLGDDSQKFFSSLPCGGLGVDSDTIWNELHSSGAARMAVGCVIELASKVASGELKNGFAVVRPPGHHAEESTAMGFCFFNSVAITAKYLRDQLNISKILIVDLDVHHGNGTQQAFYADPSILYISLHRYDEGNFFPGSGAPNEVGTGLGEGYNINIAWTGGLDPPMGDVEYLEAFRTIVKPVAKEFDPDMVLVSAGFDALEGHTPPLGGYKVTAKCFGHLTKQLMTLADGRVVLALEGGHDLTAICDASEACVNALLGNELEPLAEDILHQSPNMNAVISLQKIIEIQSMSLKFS

Consider `Cn1c(/C=C/C(=O)NO)ccc1/C=C/C(=O)c1cccc(F)c1` [MJK001, (E)-3-(5-((E)-3-(3-Fluorophenyl)-3-oxoprop-1-en-1-yl)-1-methyl-1H-pyrrol-2-yl)-N-hydro-xyacrylamide], for which the inhibition at 20 µM in data set [1] stood at 11.8%; in [2], 42.7%; in [3], 26.8%; in [4] (120 h, 5637, 20 uM, day 5, read-out: % growth inhibition) it was 42.1%; in data set [6], 3.42%. In addition, the “HDAC9 activity / specificity” value at HDAC9 is “partially blocks”. Moreover, in data set [5] (UMUC9 cell growth), half-maximal inhibition (IC50) was put at 7.1 µM.
Regarding `Cn1c(/C=C/C(=O)NO)ccc1/C=C/C(=O)c1cccs1` [MJK004, (E)-N-hydroxy-3-(1-methyl-5-((E)-3-oxo-3-(thiophen-2-yl)prop-1-en-1-yl)-1H-pyrrol-2-yl)acrylamide], the IC50 turned out to be 6.62 µM in [7], 5.85 µM in [8], 7.58 µM in [4] and 3.97 µM in [5] (UMUC9 cell growth). For the same compound, the “HDAC9 activity / specificity” value on HDAC9 was “very low activity against HDAC9”. Moreover, the “cell growth, monotherapy” value in [5] (UMUC9, days 4 & 5) is recorded as “suppressed bladder cancer growth in both cell lines as a monotherapy”. In addition, in [5] (UMUC9, gemcitabine 10 nM, days 4 & 5), the “cell growth, combination with gemcitabine” value is listed as “increased gemcitabine's efficacy”. In data set [9], the “ability to form colonies in soft agar” value was “reduced significantly”.
With `Cn1c(/C=C/C(=O)NO)ccc1/C=C/C(=O)c1cccnc1` [MJK006, (E)-N-hydroxy-3-(1-methyl-5-((E)-3-oxo-3-(pyridin-3-yl)prop-1-en-1-yl)-1H-pyrrol-2-yl)acrylamide], the Solubility score result in data set [10] is recorded as “worst solubility”. In addition, the IC50 in [7] was 352 µM; in data set [8], 36.4 µM; in [4], 1740 µM; in data set [5] (UMUC9 cell growth), 19.8 µM. Further, the “HDAC9 activity / specificity” value on HDAC9 was “high specificity for the HDAC9 isoform; also recorded: significantly increased specificity of targeting the HDAC9 isoform”.
For `Cl.Cn1c(/C=C/C(=O)NO)ccc1/C=C/C(=O)c1cccnc1` [MJK008, (E)-N-Hydroxy-3-(1-methyl-5-((E)-3-oxo-3-(pyridin-3-yl)prop-1-en-1-yl)-1H-pyrrol-2-yl)ac-rylamide hydrochloride], the Solubility score result in [10] (hydrochloride) is listed as “highest solubility”. For the same compound, the “HDAC9 activity / specificity” value on HDAC9 (hydrochloride) is “high specificity for the HDAC9 isoform; also recorded: significantly increased specificity of targeting the HDAC9 isoform”. For the same compound, the “IC50 (uM) values” in [5] (UMUC9 cell growth) is on record as “ns”. In addition, the “IL1B and TNFA mRNA levels (inflammatory response)” value in [11] is reported as “reduced substantially the inflammatory response”.

Source of the values: US11952362B2, “Compositions and methods for treating epigenetic disease” (The Regents of the University of California, priority 2018, dated 2024).
